Reference: PMC10895799, “Differential contribution of THIK-1 K^+ channels and P2X7 receptors to ATP-mediated neuroinflammation by human microglia” (Journal of Neuroinflammation, 2024)

Legend:
Format in all cases: cell-based
THIK-1 (hKCNK13) [1] = biological target: T1, THIK-1 (hKCNK13) (Homo sapiens, UniProt Q9HB14); experiment: radioligand displacement on HEK-hKCNK13 membranes; IC50 from FLIPR thallium flux in HEK293; QPatch IC50 […]
T1 construct: gene KCNK13
T1 sequence (Q9HB14 1-408): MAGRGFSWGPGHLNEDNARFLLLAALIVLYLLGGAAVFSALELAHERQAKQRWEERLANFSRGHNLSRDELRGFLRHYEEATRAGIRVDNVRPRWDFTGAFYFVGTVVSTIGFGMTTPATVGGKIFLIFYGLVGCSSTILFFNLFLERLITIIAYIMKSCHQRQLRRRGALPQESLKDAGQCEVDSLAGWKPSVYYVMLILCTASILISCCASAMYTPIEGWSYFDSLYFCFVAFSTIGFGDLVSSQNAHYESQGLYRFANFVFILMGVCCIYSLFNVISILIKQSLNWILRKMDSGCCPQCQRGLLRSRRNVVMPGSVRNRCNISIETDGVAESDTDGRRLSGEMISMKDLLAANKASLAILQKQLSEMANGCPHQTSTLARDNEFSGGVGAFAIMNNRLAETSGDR

THIK-1 (mKCNK13) = biological target: T2, THIK-1 (mKCNK13) (Mus musculus, UniProt Q8R1P5); experiment: FLIPR thallium flux in HEK293 cells; patch clamp of WT and THIK-1 KO microglia
T2 construct: gene Kcnk13
T2 sequence (Q8R1P5 1-405): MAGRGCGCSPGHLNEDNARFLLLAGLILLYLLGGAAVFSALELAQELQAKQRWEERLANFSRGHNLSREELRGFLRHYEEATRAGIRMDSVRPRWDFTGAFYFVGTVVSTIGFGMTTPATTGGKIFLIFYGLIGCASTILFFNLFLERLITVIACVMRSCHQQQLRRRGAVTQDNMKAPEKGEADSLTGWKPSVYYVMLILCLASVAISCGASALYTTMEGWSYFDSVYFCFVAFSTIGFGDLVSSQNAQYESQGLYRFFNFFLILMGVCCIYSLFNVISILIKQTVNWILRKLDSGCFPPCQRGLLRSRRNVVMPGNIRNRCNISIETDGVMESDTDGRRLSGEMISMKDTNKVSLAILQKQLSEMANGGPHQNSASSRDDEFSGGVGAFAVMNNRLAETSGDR

THIK-1 (hKCNK13) [2] = biological target: T1, THIK-1 (hKCNK13); experiment: reference blocker in FLIPR thallium flux and QPatch assays of hTHIK-1 HEK cells

| Structure (SMILES) | IC50 (THIK-1 (hKCNK13) [1]) | IC50 (THIK-1 (mKCNK13)) | reference blocker in FLIPR thallium flux and QPatch assays of hTHIK-1 HEK cells (THIK-1 (hKCNK13) [2]) |
| --- | --- | --- | --- |
| COc1ncc(Cl)cc1C(=O)N(C)Cc1cccc(F)c1 [C100814] | 71 nM | 61 nM | – |
| CCCCC[N+](CCCCC)(CCCCC)CCCCC [tetrapentylammonium] | – | – | normalised to controls using the nonselective THIK-1 antagonist tetrapentylammonium (TPA) |
